The target in one assay is T1, human H4 receptor (Homo sapiens, UniProt Q9H3N8).
T1 construct: expressed in transfected cells
T1 sequence (Q9H3N8 whole entry): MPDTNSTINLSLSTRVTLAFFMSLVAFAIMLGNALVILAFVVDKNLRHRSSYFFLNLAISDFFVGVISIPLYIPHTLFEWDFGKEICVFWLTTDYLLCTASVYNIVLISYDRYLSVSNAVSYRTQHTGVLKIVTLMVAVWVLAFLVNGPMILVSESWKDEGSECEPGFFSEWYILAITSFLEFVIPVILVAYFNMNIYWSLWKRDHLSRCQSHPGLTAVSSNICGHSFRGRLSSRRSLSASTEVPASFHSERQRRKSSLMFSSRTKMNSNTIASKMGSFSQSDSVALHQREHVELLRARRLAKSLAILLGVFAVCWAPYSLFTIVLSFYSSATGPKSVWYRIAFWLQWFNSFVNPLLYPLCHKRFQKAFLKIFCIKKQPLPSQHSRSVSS
The assay can be described thus: [3H]Histamine binding on membranes of CHO cells stably expressing human H4 receptor.
Conditions: not given
The method in brief:
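Nonspecific binding defined with 10 μM JNJ 7777120. Bound radioactivity collected on polyethyleneimine-treated GF/B filters and counted by liquid scintillation.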
Compound `CN1CCC(OC(c2cccc(SCCCCN)c2)c2nc3ccccc3[nH]2)CC1` (stereo not shown) [Example 326, 4-{3-[(1H-benzimidazol-2-yl)(1-methylpiperidin-4-yloxy)methyl]phenylsulfanyl}butylamine] registered a Ki or IC50 activity class of under 30 nM. As to `CN1CCC(OC(c2cccc(OCCCN3CCOCC3)c2)c2nc3ccccc3s2)CC1` (stereo not shown) [Example 350, 2-{(1-methylpiperidin-4-yloxy)[3-(3-morpholin-4-yl-propoxy)phenyl]methyl}benzothiazole], the Ki or IC50 activity class was under 1000 nM. For `CCOCCn1c(C(OC2CCN(C)CC2)c2cccc(C#CCCCCN)c2)nc2ccccc21` (stereo not shown) [Example 500], the Ki or IC50 activity class was under 300 nM.

In turn, `CN1CCC(COC(c2cccc(Br)c2)c2nc3cc(F)ccc3[nH]2)C1` (stereo not shown) [Example 449, 2-[(3-bromophenyl)(1-methylpyrrolidin-3-ylmethoxy)methyl]-5-fluoro-1H-benzimidazole] gave a Ki or IC50 activity class of under 30 nM.

Take `CN1CCC(OC(c2ccc3c(c2)OCO3)c2nc3ccccc3s2)CC1` (stereo not shown) [Example 20, 2-[benzo[1,3]dioxol-5-yl(1-methylpiperidin-4-yloxy)methyl]benzothiazole]: the Ki or IC50 activity class is under 300 nM. The same measure, in the same setting: to `CN1CCC(OC(c2cccc(N3CCC(O)(C(F)(F)F)C3)c2)c2nc3ccccc3s2)CC1` (stereo not shown) [Example 460, 1-{3-[benzothiazol-2-yl(1-methylpiperidin-4-yloxy)methyl]phenyl}-3-trifluoromethylpyrrolidin-3-ol] belongs under 1000 nM.

`CC(=O)c1ccc(-c2cccc(C(OC3CCN(C)CC3)c3nc4ccccc4[nH]3)c2)cc1` (stereo not shown) [Example 108, 1-{3′-[(1H-benzimidazol-2-yl)(1-methylpiperidin-4-yloxy)methyl]biphenyl-4-yl}ethanone] came in with a Ki or IC50 activity class of under 300 nM.

In turn, `CN1CCC(OC(c2cccc(I)c2)c2nc3ccccc3n2C)CC1` (stereo not shown) [Example 472, 2-[(3-iodophenyl)(1-methylpiperidin-4-yloxy)methyl]-1-methyl-1H-benzimidazole] registered a Ki or IC50 activity class of under 300 nM. Regarding `CN1CCC(NC(c2cccc(OCC3CCCCC3)c2)c2nc3ccccc3s2)CC1` (stereo not shown) [Example 93, [benzothiazol-2-yl(3-cyclohexylmethoxyphenyl)methyl](1-methylpiperidin-4-yl)amine], the Ki or IC50 activity class is under 300 nM. Same read-out and setting: to `CC(=O)CCCOc1cccc(C(OC2CCN(C)CC2)c2nc3ccccc3s2)c1` (stereo not shown) [Example 186, 5-{3-[benzothiazol-2-yl(1-methylpiperidin-4-yloxy)methyl]phenoxy}pentan-2-one] belongs under 1000 nM.

On to `CN1CCC(OC(c2cccc(C#CCCCNC(=N)N)c2)c2nc3ccccc3[nH]2)CC1` (stereo not shown) [Example 358, N-(5-{3-[(1H-benzimidazol-2-yl)(1-methylpiperidin-4-yloxy)methyl]phenyl}pent-4-ynyl)guanidine], for which the Ki or IC50 activity class is under 30 nM.

As for `CN1CCC(OC(c2cccc(SC(F)(F)F)c2)c2nc3ccccc3[nH]2)CC1` (stereo not shown) [Example 517], the Ki or IC50 activity class was under 30 nM. Still for that read-out and setting: to `CN1CCC(OC(c2cccc(CCCNC(=N)N)c2)c2nc3ccccc3[nH]2)CC1` (stereo not shown) [Example 320, N-(3-{3-[(1H-benzimidazol-2-yl)(1-methylpiperidin-4-yloxy)methyl]phenyl}propyl)guanidine] belongs under 30 nM; to `CN1CCC(OC(c2cccc(SCCCCCCN)c2)c2nc3ccccc3[nH]2)CC1` (stereo not shown) [Example 451], under 300 nM.

With `CCSc1cc(C(OC2CCN(C)CC2)c2nc3ccccc3[nH]2)ccc1C` (stereo not shown) [Example 274, 2-[(3-ethylsulfanyl-4-methylphenyl)(1-methylpiperidin-4-yloxy)methyl]-1H-benzimidazole], the Ki or IC50 activity class was under 300 nM. `CC(C)NC(=S)NCCSc1cccc(C(OC2CCN(C)CC2)c2nc3ccccc3[nH]2)c1` (stereo not shown) [Example 347, 1-(2-{3-[(1H-benzimidazol-2-yl)(1-methylpiperidin-4-yloxy)methyl]phenylsulfanyl}ethyl)-3-isopropylthiourea]: the Ki or IC50 activity class was under 1000 nM.

The compound `CN1CCC(OC(c2cccc(SCCN)c2)c2nc3cc(F)ccc3[nH]2)CC1` (stereo not shown) [Example 428, 2-{3-[(5-fluoro-1H-benzimidazol-2-yl)(1-methylpiperidin-4-yloxy)methyl]phenylsulfanyl}ethylamine] yielded a Ki or IC50 activity class of under 300 nM. Still for that read-out and setting: to `C#Cc1cccc(C(OC2CCN(C)CC2)c2nc3ccccc3[nH]2)c1` (stereo not shown) [Example 195, 2-[(3-ethynylphenyl)(1-methylpiperidin-4-yloxy)methyl]-1H-benzimidazole] belongs under 300 nM; to `CN1CCC(OC(c2cccc(C#CCCCn3ccnn3)c2)c2nc3ccccc3[nH]2)CC1` (stereo not shown) [Example 417, 2-{(1-methylpiperidin-4-yloxy)[3-(5-[1,2,3]triazol-1-ylpent-1-ynyl)phenyl]methyl}-1H-benzimidazole], under 1000 nM.

Regarding `CN1CC(COC(c2nc3ccccc3[nH]2)c2cc(OC(F)(F)F)ccc2F)C1` (stereo not shown) [Example 516], the Ki or IC50 activity class was under 300 nM.

Turning to `CN1CCC(OC(c2cccc(C#CCCCn3nccn3)c2)c2nc3ccccc3[nH]2)CC1` (stereo not shown) [Example 416, 2-{(1-methylpiperidin-4-yloxy)[3-(5-[1,2,3]triazol-2-yl-pent-1-ynyl)phenyl]methyl}-1H-benzimidazole], the Ki or IC50 activity class is under 300 nM. On the same count and under the same terms, to `CN1CCC(OC(c2cccc(Oc3cccnc3)c2)c2nc3ccccc3s2)CC1` (stereo not shown) [Example 448, 2-{(1-methylpiperidin-4-yloxy)[3-(pyridin-3-yloxy)phenyl]methyl}benzothiazole] belongs under 300 nM; to `Cc1ccc(C(OC2CCN(C)CC2)c2nc3ccccc3[nH]2)c(F)c1` (single isomer, unassigned) [Example 533, 2-[(2-fluoro-4-methylphenyl)(1-methylpiperidin-4-yloxy)methyl]-1H-benzimidazole], under 30 nM. `CCOC(=O)n1c(C(OC2CCN(C)CC2)c2cc(OC(F)(F)F)ccc2F)nc2ccccc21` (stereo not shown) [Example 553] returned a Ki or IC50 activity class of under 1000 nM.

Take `COc1ccc(-c2cccc(C(NC3CCN(C)CC3)c3nc4ccccc4s3)c2)cc1` (stereo not shown) [Example 211, [benzothiazol-2-yl(4′-methoxybiphenyl-3-yl)methyl](1-methylpiperidin-4-yl)amine]: the Ki or IC50 activity class is under 300 nM. The compound `CN1CCC(OC(c2cccc(OCc3cccc([N+](=O)[O-])c3)c2)c2nc3ccccc3s2)CC1` (stereo not shown) [Example 196, 2-{(1-methylpiperidin-4-yloxy)[3-(3-nitro-benzyloxy)phenyl]methyl}benzothiazole] returned a Ki or IC50 activity class of under 30 nM. Same read-out and setting: to `CN1CCC(OC(c2cccc(C#N)c2)c2nc3ccccc3[nH]2)CC1` (stereo not shown) [Example 172, 3-[(1H-benzimidazol-2-yl)(1-methylpiperidin-4-yloxy)methyl]benzonitrile] belongs under 300 nM; to `CN1CCC(OC(c2cccc(OCCCCN3CCCCC3)c2)c2nc3ccccc3[nH]2)CC1` (stereo not shown) [Example 333, 2-{(1-methylpiperidin-4-yloxy)[3-(4-piperidin-1-yl-butoxy)phenyl]methyl}-1H-benzimidazole], under 300 nM; to `CN1CCC(OC(c2cccc(SCCNC3=NCCS3)c2)c2nc3ccccc3[nH]2)CC1` (stereo not shown) [Example 299, (2-{3-[(1H-benzimidazol-2-yl)(1-methylpiperidin-4-yloxy)methyl]phenyl-sulfanyl}ethyl)(4,5-dihydrothiazol-2-yl)amine], under 1000 nM. Same read-out and setting: to `CN1CC(COC(c2cccc(Br)c2)c2nc3ccccc3[nH]2)C1` (stereo not shown) [Example 506] belongs under 300 nM. Same read-out and setting: with `CN1CCC(OC(c2cccc(SCCc3cnccn3)c2)c2nc3ccccc3s2)CC1` (stereo not shown) [Example 233, 2-{(1-methylpiperidin-4-yloxy)[3-(2-pyrazin-2-yl-ethylsulfanyl)phenyl]methyl}benzothiazole] the figure was under 300 nM; with `CC(C)Oc1cccc(C(NC2CCN(C)CC2)c2nc3ccccc3s2)c1` (stereo not shown) [Example 88, [benzothiazol-2-yl(3-isopropoxyphenyl)methyl](1-methylpiperidin-4-yl)amine], under 30 nM; with `CN1CCC(OC(c2cccc(OCC=CCN)c2)c2nc3ccccc3s2)CC1` (stereo not shown) [Example 431, 4-{3-[benzothiazol-2-yl(1-methylpiperidin-4-yloxy)methyl]phenoxy}but-2-enylamine], under 30 nM.

With `CN1CCC(NC(c2cccc(OCc3ccc(F)cc3)c2)c2nc3ccccc3[nH]2)CC1` (stereo not shown) [Example 103, {(1H-benzimidazol-2-yl)[3-(4-fluorobenzyloxy)phenyl]methyl}(1-methylpiperidin-4-yl)amine], the Ki or IC50 activity class is under 300 nM.

Consider `CSc1cccc(C(NC2CCN(C)CC2)c2nc3ccccc3s2)c1` (stereo not shown) [Example 111, [benzothiazol-2-yl(3-methylsulfanylphenyl)methyl](1-methylpiperidin-4-yl)amine], for which the Ki or IC50 activity class was under 30 nM. `CN1CCC(OC(c2cccc(C#CCCCCNC(=N)N)c2)c2nc3ccccc3[nH]2)CC1` (stereo not shown) [Example 346, N-(6-{3-[(1H-benzimidazol-2-yl)(1-methylpiperidin-4-yloxy)methyl]phenyl}hex-5-ynyl)guanidine] yielded a Ki or IC50 activity class of under 300 nM. Consider `CN1CCC(OC(c2cccc(OCc3cc(F)ccc3F)c2)c2nc3ccccc3s2)CC1` (stereo not shown) [Example 156, 2-[[3-(2,5-difluorobenzyloxy)phenyl](1-methylpiperidin-4-yloxy)methyl]benzothiazole], for which the Ki or IC50 activity class is under 30 nM.

The assay is the same for the next values; noted with them: human H4 receptor; evaluated in the GTPγ[35S] assay or in the [3H]histamine binding assay (not stated which per compound); Ki or IC50 class.
On to `CN1CCC(OC(c2cccc(I)c2)c2nc3ccccc3s2)CC1` (single isomer, unassigned) [Example 118, 2-[(3-iodophenyl)(1-methylpiperidin-4-yloxy)methyl]benzothiazole], for which the Ki or IC50 activity class was under 30 nM. Consider `CN1CCC(OC(c2cccc(N3CCC(O)C3)c2)c2nc3ccccc3s2)CC1` (stereo not shown) [Example 407, 1-{3-[benzothiazol-2-yl(1-methylpiperidin-4-yloxy)methyl]phenyl}pyrrolidin-3-ol], for which the Ki or IC50 activity class was under 30 nM.

Turning to “4-[benzothiazol-2-yl(3-bromo-phenyl)methoxy]-1,1-dimethylpiperidinium [Example 188]”, the Ki or IC50 activity class is under 30 nM.
